In US20070254312A1, “Protein Kinase Inhibitors and Methods for Identiying Same” (priority 2004, published 2007):
Read-outs that look alike come from different tables or passages of the source. Starred links: 1 amine or outer side, 2 acyl side, 3 side chain; linkers in the order of their positions; H or OH if unused. Non-standard residues stand in square brackets, D forms with d. Residues, ends and D or L forms follow the SMILES beside them. *: point of attachment. Benzoyl(4-(pyrrol-1-yl)) = O=C(c1ccc(-n2cccc2)cc1)*; Cysteamide = C(CS[*:3])N[*:1]; Dap = NC[C@H](N)C(=O)O

Experiments:
PKCγ = PKCγ (Homo sapiens, UniProt P05129); set-up: purchased Panvera; conditions: cited from earlier work
PKCζ = molecular target: T1, PKCζ (Homo sapiens, UniProt Q05513); set-up: purchased Panvera; conditions: cited from earlier work
T1 sequence (Q05513 1-592): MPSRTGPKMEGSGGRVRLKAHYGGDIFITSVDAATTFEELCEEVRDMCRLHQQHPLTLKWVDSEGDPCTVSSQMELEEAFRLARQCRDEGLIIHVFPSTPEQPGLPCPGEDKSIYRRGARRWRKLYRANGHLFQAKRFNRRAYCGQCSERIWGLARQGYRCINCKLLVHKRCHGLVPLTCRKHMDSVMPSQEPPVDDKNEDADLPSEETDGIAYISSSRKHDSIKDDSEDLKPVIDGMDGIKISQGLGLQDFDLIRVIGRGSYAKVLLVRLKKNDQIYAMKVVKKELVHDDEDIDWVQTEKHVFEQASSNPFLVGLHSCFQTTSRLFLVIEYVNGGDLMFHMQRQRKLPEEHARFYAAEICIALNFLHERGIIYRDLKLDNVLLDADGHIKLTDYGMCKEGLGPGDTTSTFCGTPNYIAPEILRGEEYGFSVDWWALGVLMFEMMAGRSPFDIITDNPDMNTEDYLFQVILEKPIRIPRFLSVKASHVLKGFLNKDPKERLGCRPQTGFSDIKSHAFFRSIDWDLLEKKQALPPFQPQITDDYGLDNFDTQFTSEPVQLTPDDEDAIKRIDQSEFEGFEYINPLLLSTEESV

PKC β1 = PKC β1 (Homo sapiens, UniProt P05771); conditions: cited from earlier work
PKCη = PKCη (Homo sapiens, UniProt P24723); set-up: purchased Panvera; conditions: cited from earlier work
PKCα [1] = molecular target: T2, PKCα (Homo sapiens, UniProt P17252); conditions: cited from earlier work
PKCδ = PKCδ (Homo sapiens, UniProt Q05655); set-up: purchased Panvera; conditions: literature values; relative to most potently inhibited isoform (=1); cited from earlier work
PKCε = molecular target: T3, PKCε (Homo sapiens, UniProt Q02156); set-up: purchased Panvera; conditions: cited from earlier work
T3 sequence (Q02156 1-737): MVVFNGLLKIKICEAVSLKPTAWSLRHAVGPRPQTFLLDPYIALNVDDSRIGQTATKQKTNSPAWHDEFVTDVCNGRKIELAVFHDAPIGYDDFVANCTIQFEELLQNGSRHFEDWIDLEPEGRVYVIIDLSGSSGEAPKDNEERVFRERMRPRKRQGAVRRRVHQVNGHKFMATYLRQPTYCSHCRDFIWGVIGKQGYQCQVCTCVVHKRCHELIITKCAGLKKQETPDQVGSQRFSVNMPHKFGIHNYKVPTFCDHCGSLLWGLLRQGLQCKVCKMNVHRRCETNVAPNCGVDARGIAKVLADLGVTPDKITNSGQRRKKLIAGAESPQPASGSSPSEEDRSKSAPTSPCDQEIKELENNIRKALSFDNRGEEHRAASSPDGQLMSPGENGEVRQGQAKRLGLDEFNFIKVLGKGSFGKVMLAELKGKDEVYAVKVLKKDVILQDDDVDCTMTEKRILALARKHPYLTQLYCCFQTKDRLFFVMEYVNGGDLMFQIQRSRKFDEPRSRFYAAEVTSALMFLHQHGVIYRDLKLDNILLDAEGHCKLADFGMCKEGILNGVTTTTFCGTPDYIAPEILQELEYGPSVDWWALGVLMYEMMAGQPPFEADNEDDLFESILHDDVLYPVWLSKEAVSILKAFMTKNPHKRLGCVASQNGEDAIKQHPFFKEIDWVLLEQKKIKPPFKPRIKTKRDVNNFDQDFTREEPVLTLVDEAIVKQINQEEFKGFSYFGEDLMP

PKCα [2] = molecular target: T2, PKCα; experiment: Protein Kinase Cα radioactive assay, peptide substrate Ac-Ser-Phe-Arg-Arg-Arg-NH2 (Example 1); type: biochemical; set-up: purchased Pan Vera; conditions: peptide substrate; read-out: PKCα inhibitory potency IC50
Description: Protein Kinase C Assay (general). The peptides […] (for PKC α, β and γ) and acetyl-[…] (for PKC ε and ζ) were used as substrates. […] Total reaction volume was 50 μL. […] Following an additional 5 min incubation at ambient temperature, 75 μL from each reaction well was transferred into each well of a Unifilter (P81 cellulose phosphate paper) assay plate and washed four times with 0.1% phosphoric acid in water. […] IC50 values were calculated using GraFit (Erithacus Software Limited) and Ki values were calculated using Enzyme Kinetics, SigmaPlot (SPSS Inc.) […] An analogous protocol was employed for peptide 4 versus variable [[…]]. […] An analogous protocol was employed for peptide 4 versus variable [ATP]. Protein Kinase Cα Assay (Ki determination for peptide 6 versus variable […] substrate). […] The reaction was initiated as described above. […] Following an additional 5 min incubation at ambient temperature, 75 μL from each reaction well was transferred into each well of a Unifilter (P81 cellulose phosphate paper) assay plate and washed four times with 0.1% phosphoric acid in water. […] IC50 values were calculated using GraFit (Erithacus Software Limited) and Ki values were calculated using Enzyme Kinetics, SigmaPlot (SPSS Inc.)

Chain of PKC β1 (P05771 whole entry): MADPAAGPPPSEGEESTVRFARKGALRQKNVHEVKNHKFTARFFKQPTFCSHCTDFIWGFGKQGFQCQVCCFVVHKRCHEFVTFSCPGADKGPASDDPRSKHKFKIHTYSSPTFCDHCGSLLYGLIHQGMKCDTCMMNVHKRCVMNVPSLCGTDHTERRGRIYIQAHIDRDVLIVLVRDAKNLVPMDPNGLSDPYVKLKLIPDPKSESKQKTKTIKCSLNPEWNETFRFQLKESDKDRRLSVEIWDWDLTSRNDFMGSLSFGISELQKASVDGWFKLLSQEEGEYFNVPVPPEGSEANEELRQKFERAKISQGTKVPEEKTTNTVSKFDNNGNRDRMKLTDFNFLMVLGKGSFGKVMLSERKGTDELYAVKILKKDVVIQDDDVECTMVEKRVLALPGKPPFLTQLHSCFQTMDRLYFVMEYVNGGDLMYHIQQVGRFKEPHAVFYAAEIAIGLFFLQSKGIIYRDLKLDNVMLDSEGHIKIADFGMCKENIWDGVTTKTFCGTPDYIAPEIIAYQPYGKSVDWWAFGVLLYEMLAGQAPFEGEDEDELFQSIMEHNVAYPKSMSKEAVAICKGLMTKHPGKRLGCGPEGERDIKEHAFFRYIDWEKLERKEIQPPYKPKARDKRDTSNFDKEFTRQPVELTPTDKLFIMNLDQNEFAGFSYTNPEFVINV
Chain of PKCδ (Q05655 whole entry, canonical isoform): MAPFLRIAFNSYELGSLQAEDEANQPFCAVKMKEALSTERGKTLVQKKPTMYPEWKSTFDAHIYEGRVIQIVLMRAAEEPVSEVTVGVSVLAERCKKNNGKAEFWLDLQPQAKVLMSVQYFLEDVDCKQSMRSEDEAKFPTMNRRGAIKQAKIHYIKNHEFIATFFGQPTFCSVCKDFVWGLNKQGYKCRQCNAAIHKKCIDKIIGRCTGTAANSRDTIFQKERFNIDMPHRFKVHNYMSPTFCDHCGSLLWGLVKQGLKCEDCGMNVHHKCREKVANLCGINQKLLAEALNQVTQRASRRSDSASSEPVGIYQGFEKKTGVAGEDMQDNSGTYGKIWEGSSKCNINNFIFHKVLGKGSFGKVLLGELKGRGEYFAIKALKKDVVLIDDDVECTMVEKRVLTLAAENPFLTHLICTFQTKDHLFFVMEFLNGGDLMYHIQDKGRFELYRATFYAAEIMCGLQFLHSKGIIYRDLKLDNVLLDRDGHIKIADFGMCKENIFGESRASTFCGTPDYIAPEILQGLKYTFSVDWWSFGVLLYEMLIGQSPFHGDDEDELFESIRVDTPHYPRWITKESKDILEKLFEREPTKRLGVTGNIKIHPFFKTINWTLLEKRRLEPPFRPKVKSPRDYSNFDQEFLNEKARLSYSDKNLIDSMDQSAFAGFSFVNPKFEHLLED
Chain of PKCη (P24723 whole entry): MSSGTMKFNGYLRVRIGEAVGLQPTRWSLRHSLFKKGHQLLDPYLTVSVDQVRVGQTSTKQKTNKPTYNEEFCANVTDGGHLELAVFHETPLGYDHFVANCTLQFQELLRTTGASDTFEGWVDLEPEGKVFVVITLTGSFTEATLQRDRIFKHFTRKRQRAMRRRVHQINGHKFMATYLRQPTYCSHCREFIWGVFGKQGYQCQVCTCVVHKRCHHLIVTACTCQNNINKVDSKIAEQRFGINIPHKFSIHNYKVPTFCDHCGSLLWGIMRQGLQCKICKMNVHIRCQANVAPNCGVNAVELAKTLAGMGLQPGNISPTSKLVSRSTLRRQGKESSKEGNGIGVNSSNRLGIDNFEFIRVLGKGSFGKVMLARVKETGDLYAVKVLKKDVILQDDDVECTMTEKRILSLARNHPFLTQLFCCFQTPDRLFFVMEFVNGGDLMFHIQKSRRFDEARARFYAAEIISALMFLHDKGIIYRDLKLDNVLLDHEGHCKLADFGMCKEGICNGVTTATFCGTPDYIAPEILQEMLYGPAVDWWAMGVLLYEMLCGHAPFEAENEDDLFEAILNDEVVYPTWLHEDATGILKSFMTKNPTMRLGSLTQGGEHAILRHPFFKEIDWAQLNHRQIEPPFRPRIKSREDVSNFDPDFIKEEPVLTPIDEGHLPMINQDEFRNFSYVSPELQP

Row | IC50 (PKCα [2]) [µM] | SMILES | Fold selectivity (IC50), PKC γ (PKCγ) [fold] | Fold selectivity (IC50), PKC ζ (PKCζ) [fold] | Fold selectivity (IC50), PKC β1 (PKC β1) [fold] | Fold selectivity (IC50), PKC β1 (PKC β1; listed as rottlerin) [fold] | Fold selectivity (IC50), PKC η (PKCη) [fold] | Fold selectivity (IC50), PKC α (PKCα [1]) [fold] | Fold selectivity (IC50), PKC δ (PKCδ) [fold] | Fold selectivity (IC50), PKC ε (PKCε) [fold]
1 |  | CC(=O)c1c(O)c(C)c(O)c(Cc2c(O)c3c(c(C(=O)/C=C/c4ccccc4)c2O)OC(C)(C)C=C3)c1O [Rottlerin, rottlerin] | 13 | 33 | 14 | 10 | 27 | 10 | 1 | 33
2 | 5.7 ± 0.4 | CC(=O)N[C@@H](C)C(=O)N[C@@H](CCCNC(=N)N)C(=O)N[C@@H](CCCNC(=N)N)C(=O)NCC(=O)N[C@@H](CNC(=O)c1ccc(-n2cccc2)cc1)C(=O)N[C@@H](CC(C)C)C(=O)N[C@@H](CCCNC(=N)N)C(=O)N[C@@H](CCC(N)=O)C(=O)N[C@@H](C)C(=O)NCCS [Compound 2] (Ac-ARRG[Dap](Benzoyl(4-(pyrrol-1-yl)))LRQA-Cysteamide) |  |  |  |  |  |  |  | 
